Results on 17 molecules are retold here after US6630191B1, “Aspartyl dipeptide ester derivatives and sweeteners” (Ajinomoto Co., Inc., priority 1998, dated 2003).

Marks after values point to notes of the source that are not given here.

Test [1] in a line: Sensory evaluation of sweetening potency relative to sugar (4% sucrose aqueous solution). The following applies: for Sweetening Potency, compensated value as optical isomer / Sweetening Potency: Relative to sweetening potency of a 4% sucrose aqueous solution; for Sweetening Potency, compensated value as optical isomer: compensated value as optical isomer (DL-homophenylalanine derivatives); for Sweetening potency (relative to sugar): sensory evaluation. An excerpt: For example, the sweetening potency of N-[N-[3-(3-hydroxy-4-methoxyphenyl)propyl]-L-α-aspartyl]-L-(α-methyl)phenylalanine 1-methyl ester was approximately 18,000 times (relative to sugar), that of N-[N-[3-(3-methoxy-4-hydroxyphenyl)propyl]-L-α-aspartyl]-L-(α-methy)phenylalanine 1-methyl ester was approximately 18,000 times (relative to sugar), that of N-[N-[3-(3-hydroxy-4-methoxyphenyl)propyl]-L-α-aspartyl]-3-cyclohexyl-L-alanine 1-methyl ester was approximately 25,000 times (relative to sugar), that of N-[N-[3-(3-methoxy-4-hydroxyphenyl)propyl]-L-α-aspartyl]-3-cyclohexyl-L-alanine 1-methyl ester was approximately 25,000 times (relative to sugar), that of N-[N-[3-(3-methyl-4-hydroxyphenyl)propyl]-L-(α-aspartyl]-3-cyclohexyl-L-alanine 1-methyl ester was approximately 40,000 times (relative to sugar).
With respect to the aspartyl dipeptide derivatives (represented by the following general formula (5)) formed, the structures and the results of the sensory evaluation are shown in Table 1. [drawing 4]

The conditions of test [2]: reported in WO 94/11391; cited from earlier work.

Turning to `COC(=O)C(CCc1ccccc1)NC(=O)[C@H](CC(=O)O)NCCCc1ccc(OC)c(O)c1` (mixture of isomers) [Compound 7, N-[N-[3-(3-Hydroxy-4-methoxyphenyl)propyl]-L-α-aspartyl]-DL-homophenylalanine 1-Methyl Ester], in test [1], the “Sweetening Potency, compensated value as optical isomer” value is reported as 2000^2) and the “Sweetening potency (relative to sugar)” value was 1,000 times.

Turning to `COC(=O)C(CCc1ccccc1)NC(=O)[C@H](CC(=O)O)NCCCc1ccc(O)c(OC)c1` (mixture of isomers) [Compound 8, N-[N-[3-(3-Methoxy-4-hydroxyphenyl)propyl]-L-α-aspartyl]-DL-homophenylalanine 1-Methyl Ester], in test [1], the “Sweetening Potency, compensated value as optical isomer” value was 2400^2) and the “Sweetening potency (relative to sugar)” value is recorded as 1,200 times.

For `COC(=O)[C@](C)(Cc1ccccc1)NC(=O)[C@H](CC(=O)O)NCCCc1ccc(OC)c(O)c1` [Compound 1, N-[N-[3-(3-Hydroxy-4-methoxyphenyl)propyl]-L-α-aspartyl]-L-(α-methyl)phenylalanine 1-Methyl Ester], in test [1], the “Sweetening Potency” value was 18000 and the “Sweetening potency (relative to sugar)” value is reported as 18,000 times. The “Sweetening potency (relative to sugar)” value in test [1] (listed as N-[N-[3-(3-hydroxy-4-methoxyphenyl)propyl]-L-α-aspartyl]-L-(α-methyl)phenylalani) is on record as “approximately 18,000 times”.

As for `COC(=O)[C@](C)(Cc1ccccc1)NC(=O)[C@H](CC(=O)O)NCCCc1ccc(O)c(OC)c1` [Compound 2, N-(N-(3-(3-Methoxy-4-hydroxyphenyl)propyl]-L-α-aspartyl]-L-(α-methyl)phenylalanine 1-Methyl Ester], in test [1], the “Sweetening Potency” value turned out to be 18000 and the “Sweetening potency (relative to sugar)” value is recorded as 18,000 times. In test [1] (listed as N-[N-[3-(3-methoxy-4-hydroxyphenyl)propyl]-L-α-aspartyl]-L-(α-methy)phenylalanin), the “Sweetening potency (relative to sugar)” value is “approximately 18,000 times”.

Take `COC(=O)[C@H](CC1CCCCC1)NC(=O)[C@H](CC(=O)O)NCCCc1ccc(OC)c(O)c1` [Compound 3, N-[N-[3-(3-Hydroxy-4-methoxyphenyl)propyl]-L-α-aspartyl]-3-cyclohexyl-L-alanine 1-Methyl Ester]: the “Sweetening Potency” value in test [1] came out at 25000. For the same molecule, the “Sweetening potency (relative to sugar)” value in test [1] was 25,000 times; in test [1] (listed as N-[N-[3-(3-hydroxy-4-methoxyphenyl)propyl]-L-α-aspartyl]-3-cyclohexyl-L-alanine), “approximately 25,000 times”.

For `COC(=O)[C@H](CC1CCCCC1)NC(=O)[C@H](CC(=O)O)NCCCc1ccc(O)c(OC)c1` [Compound 4, N-[N-(3-(3-Methoxy-4-hydroxyphenyl)propyl]-L-α-aspartyl]-3-cyclohexyl-L-alanine 1-Methyl Ester], the “Sweetening Potency” value in test [1] is on record as 25000. In addition, the results for the “Sweetening potency (relative to sugar)” value in test [1] and in test [1] (listed as N-[N-[3-(3-methoxy-4-hydroxyphenyl)propyl]-L-α-aspartyl]-3-cyclohexyl-L-alanine) were 25,000 times and “approximately 25,000 times”, respectively.

Regarding `COC(=O)C(NC(=O)C(CC(=O)O)NCCCc1ccc(OC)c(O)c1)c1ccccc1` [Compound 5, N-[N-[3-(3-Hydroxy-4-methoxyphenyl)propyl]-L-α-aspartyl]-L-phenylglycin 1-Methyl Ester], in test [1], the “Sweetening Potency” value came to 1600 and the “Sweetening potency (relative to sugar)” value is recorded as 1,600 times.

For the molecule `COC(=O)C(NC(=O)C(CC(=O)O)NCCCc1ccc(O)c(OC)c1)c1ccccc1` [Compound 6, N-[N-[3-(3-Methoxy-4-hydroxyphenyl)propyl]-L-α-aspartyl]-L-phenylglycin 1-Methyl Ester], in test [1], the “Sweetening Potency” value amounted to 700 and the “Sweetening potency (relative to sugar)” value is on record as 700 times.

For the molecule `CCCOC(=O)[C@@H](C)NC(=O)[C@H](CC(=O)O)NCCCc1ccc(OC)c(O)c1` [Compound 9, N-[N-[3-(3-Hydroxy-4-methoxyphenyl)propyl]-L-α-aspartyl]-D-alanine 1-n-Propyl Ester], in test [1], the “Sweetening Potency” value is reported as 800 and the “Sweetening potency (relative to sugar)” value stood at 800 times.

Turning to `CCCOC(=O)[C@@H](C)NC(=O)[C@H](CC(=O)O)NCCCc1ccc(O)c(OC)c1` [Compound 10, N-[-[3-(3-Methoxy-4-hydroxyphenyl)propyl]-α-aspartyl]-D-alanine 1-n-Propyl Ester], in test [1], the “Sweetening Potency” value came to 600 and the “Sweetening potency (relative to sugar)” value is 600 times.

On to `COC(=O)C(C)(Cc1ccccc1)NC(=O)C(CC(=O)O)NCCCc1ccc(OC)cc1O` [Compound 11, N-[N-[3-(2-Hydroxy-4-methoxyphenyl)propyl]-L-α-aspartyl]-L-(α-methyl) Phenylalanine 1-Methyl Ester], for which, in test [1], the “Sweetening Potency” value was determined as 15000 and the “Sweetening potency (relative to sugar)” value is given as 15,000 times.

Turning to `COC(=O)[C@H](CC1CCCCC1)NC(=O)[C@H](CC(=O)O)NCCCc1ccc(O)c(C)c1` [Compound 12, N-[N-(3-(3-Methyl-4-hydroxyphenyl)propyl]-L-α-aspartyl]-3-cyclohexyl-L-anine 1-Methyl Ester], in test [1], the “Sweetening Potency” value came to 40000. The “Sweetening potency (relative to sugar)” value in test [1] is 40,000 times; in test [1] (listed as N-[N-[3-(3-methyl-4-hydroxyphenyl)propyl]-L-(α-aspartyl]-3-cyclohexyl-L-alanine), “approximately 40,000 times”.

In the case of `Cc1ccc(CCCN[C@@H](CC(=O)O)C(=O)N[C@@H](CC2CCCCC2)C(=O)O)c(O)c1` [Compound 13], in test [1], the “Sweetening Potency” value was determined as 25000 and the “Sweetening potency (relative to sugar)” value is on record as 25,000 times.

In the case of `COC(=O)[C@H](Cc1ccccc1)NC(=O)[C@H](CC(=O)O)NCCC(C)(C)C` [N-[N-(3,3-dimethylbutyl)-L-α--aspartyl]-L-phenylalanine 1-methyl ester], in test [2], the “Sweetening potency, times that of sugar” value is reported as 10,000 times.

As to `COC(=O)C(Cc1ccc(O)cc1)NC(=O)C(CC(=O)O)NCCC(C)(C)C` [N-[N-(3,3-dimethylbutyl)-L-α-aspartyll-L-tyrosine 1-methyl ester], the “Sweetening potency, times that of sugar” value in test [2] was 4,000 times.

Turning to `COC(=O)[C@H](Cc1ccccc1)NC(=O)[C@H](CC(=O)O)NCCCc1ccccc1` [N-[N-(3-phenylpropyl)-L-α-aspartyl]-L-phenylalanine 1-methyl ester], the “Sweetening potency, times that of sugar” value in test [2] is given as 1,500 times.

As to `COC(=O)[C@H](Cc1ccccc1)NC(=O)[C@H](CC(=O)O)NCCCc1ccc(O)c(OC)c1` [N-[N-[3-(3-methoxy-4-hydroxyphenyl)propyl]-L-α-aspartyl]-L-phenylalanine 1-methyl ester], in test [2], the “Sweetening potency, times that of sugar” value is recorded as 2,500 times.
